Test results published in PubChem BioAssay (NCI).
“And” between values parts separate entries of the source, which are not always exact repeats. Equal values may be shown once.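 Where inhibition never reached the appropriate level, the endpoint shown equals the highest concentration tested. Otherwise, values were interpolated linearly from a five-concentration, 48-hour dose response in 96-well plates. Here, GI50 denotes the concentration required for 50% inhibition of growth. The concentration for full growth arrest is given as TGI.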

Legend:
Assay in all cases: inhibition of tumour cell growth, NCI panel, 48 h
M19-MEL melanoma = system: M19-MEL melanoma
HCT-116 colon = system: HCT-116 colon
DMS 273 small cell lung = system: DMS 273 small cell lung
SNB-19 CNS = system: SNB-19 CNS
DLD-1 colon = system: DLD-1 colon
TK-10 renal = system: TK-10 renal
OVCAR-4 ovarian = system: OVCAR-4 ovarian
KM12 colon = system: KM12 colon
SF-295 CNS = system: SF-295 CNS
SR leukemia = system: SR leukemia
MDA-MB-231 breast = system: MDA-MB-231 breast

Structure (SMILES)	TGI (M19-MEL melanoma) [µM]	TGI (HCT-116 colon) [µM]	TGI (DMS 273 small cell lung) [µM]	TGI (SNB-19 CNS) [µM]	TGI (DLD-1 colon) [µM]	TGI (TK-10 renal) [µM]	TGI (OVCAR-4 ovarian) [µM]	TGI (KM12 colon) [µM]	TGI (SF-295 CNS) [µM]	GI50 (HCT-116 colon) [µM]	GI50 (SR leukemia) [µM]	TGI (SR leukemia) [µM]	GI50 (SNB-19 CNS)	GI50 (MDA-MB-231 breast)	TGI (MDA-MB-231 breast) [µM]	GI50 (TK-10 renal) [µM]	GI50 (OVCAR-4 ovarian) [µM]	GI50 (KM12 colon)	GI50 (SF-295 CNS)
CN(/N=C\c1ccnc2ccccc12)c1ccccc1	54	36	39.7	> 100	64.6	98.7	89.4	37.4	71.5										
COC12OCCN(C)C1=CC(=O)C1(C)N=NCC12 (configuration not stated)	> 100	> 100	> 100		> 100	> 100		> 100	> 100										
N#CC1=C(N)Oc2c(sc3c(Br)cccc23)C1c1ccc(Cl)cc1 (configuration not stated)		1.79		12.8		12.8	16.1	6.2	0.869	0.429	0.342	2.69	0.822 µM	1.32 µM	4.69	3.47	1.13	0.389 µM	0.276 µM
O=[N+]([O-])c1oc2ccc3ccccc3c2c1CCO		> 29.7		68.4		27.7	17.3	31.5	7.04			3.23			59.3				
Oc1ccccc1/C=N\NC(=S)N/N=C/c1ccccc1O		> 100		> 100		53.3	46.7	21.1	0.987	1.37	1.67	> 100	2.94 µM	3.05 µM	> 100	4.62	0.64	3.11 µM	0.249 µM
C/C=C(\C)C(=O)O[C@H]1C=CC(=O)O[C@H]1COC(=O)[C@H](C)O		10.9		27		24.3	21.5	27	28.9	2.72	2.2	13.4	12.1 µM	12.1 µM	28.3	10.8	5.97	8.81 µM	13.1 µM
COC(=O)[C@@H](C)C[C@H](Cc1ccccc1)NC(=O)c1csc([C@@H](C[C@H](C(C)C)N(C)C(=O)[C@@H](NC(=O)[C@H]2CCCN2C)C2CC2)OC(C)=O)n1				> 25		> 25	> 25	> 25	> 25	0.000389		> 25	0.00125 µM and 0.0025 µM	0.00165 µM and < 0.0025 µM	< 0.0025			0.00222 µM and 0.0025 µM	0.00302 µM and 0.0025 µM
CN(C)c1ccccc1[CH2][Ga]([Cl])[CH2]c1ccccc1N(C)C		2.17		2.86		4.7	3.07	2.24	2.48	0.833	1.23	4.69	1.44 µM	1.31 µM	2.71	2.16	1.24	0.635 µM	0.964 µM
CC/C=C\C[C@H](O)C/C=C1/C(=O)C=C[C@@H]1C/C=C\CCCCO		3.33		23.2		9.22	18.7	11.5	6.34	1.7	1.97	16.2	7.6 µM	3.92 µM	14.9	3.31	3.55	2.84 µM	2.39 µM
CC(C)Cc1ccc(C(C)C(=O)NCc2ccc(Cn3c(=O)sn(CCCI)c3=O)cc2)cc1 (configuration not stated)		0.393		2.78		0.95	2.12	3.25	3.08	0.134	0.364	> 100	1.45 µM	1.13 µM	2.42	0.373	0.736	1.56 µM	1.56 µM
O=C(O)Cc1ccc(N=Nc2c(O)c(C(=O)O)cc3ccccc23)cc1		> 100		> 100		> 100	> 100	> 100	> 100			> 100			> 100				
O=S(=O)(NCCCNc1cc(-c2cn(-c3ccccc3)nc2-c2cccc(O)c2)ccn1)c1ccc(Br)cc1		4.22		14.7		10.2	8.65	3.94	3.09	1.71	1.51	5.49	2.98 µM	1.6 µM	4.25	3.35	1.86	1.65 µM	1.36 µM
COc1ccc2nc3cccc([N+](=O)[O-])c3c(NC(C)CN(C)C)c2c1 (configuration not stated)		7.49		7.91		9.59	4.65	6.65	10.1	1.44	2.16		2.63 µM	2.23 µM	10.6	2.2	2	2.18 µM	2.37 µM
COc1ccc(OC)c(/C=C/c2ccnc3ccccc23)c1		8.09		13.2		16	19.6	11.5	4.89			8.07			9.44				
Cc1ccccc1C(C(=O)NC1CCCCC1)N(C(=O)CNc1ccc(C#N)cc1)c1cccc(F)c1 (configuration not stated)		> 100		37.3		71.7	> 71.6	> 100	44.6	13.6	16.9	92.2	9.13 µM	12.4 µM	70.7	24	9.34	> 100 µM	13.8 µM
O=C1CC(N2C(=O)/C(=C/C(Cl)=C\c3ccc([N+](=O)[O-])cc3)SC2=S)C(=O)N1c1ccc(O)cc1 (configuration not stated)		2.14		3.47		3.79	17.3	4.64	2.7	0.751	0.394	4.97	1.34 µM	2.14 µM	5.06	1.92	5.13	1.83 µM	1.31 µM
Nc1nn(C(=O)Nc2c(F)cccc2F)c2ccccc12		> 100		> 100		> 100	> 100	> 100	> 100	34.8	12.9	> 100	> 100 µM	98.7 µM	> 100	> 100	57.8	86.2 µM	54.8 µM
